Test results reported in article PMC2248166, “Quantitative peptide binding motifs for 19 human and mouse MHC class I molecules derived using positional scanning combinatorial peptide libraries” (Immunome Research, 2008).
Where a SMILES comes first, the peptide text is derived from it.

Target: HLA A*3001 (Homo sapiens, UniProt P04439, D140H/D185E/E176W/F33S/G80R/H175R/K168Q/R138E/R41S)
Experiment: biochemical
Type: binding

HLA A*3001, sequence (P04439 25-365 limits assumed, stated change not applied): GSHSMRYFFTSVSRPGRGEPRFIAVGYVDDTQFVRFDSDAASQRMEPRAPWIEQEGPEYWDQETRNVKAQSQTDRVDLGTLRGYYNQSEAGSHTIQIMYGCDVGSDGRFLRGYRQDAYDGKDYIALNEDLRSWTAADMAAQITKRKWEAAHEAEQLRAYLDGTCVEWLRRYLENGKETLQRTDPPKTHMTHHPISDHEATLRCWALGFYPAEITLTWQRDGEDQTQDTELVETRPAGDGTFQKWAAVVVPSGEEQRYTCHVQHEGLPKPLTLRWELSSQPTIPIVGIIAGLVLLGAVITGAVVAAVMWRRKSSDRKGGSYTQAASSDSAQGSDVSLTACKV

CSCC[C@H](N)C(=O)NCC(=O)N[C@@H](CCCNC(=N)N)C(=O)N[C@@H](Cc1ccccc1)C(=O)NCC(=O)N[C@@H](Cc1ccc(O)cc1)C(=O)N[C@H](C(=O)N1CCC[C@H]1C(=O)N[C@@H](Cc1ccc(O)cc1)C(=O)O)C(C)C [3102.0212] (H-MGRFGYVPY-OH)
IC50: 15 nM

CC[C@H](C)[C@H](NC(=O)[C@@H](N)CO)C(=O)N[C@@H](CCCCN)C(=O)N[C@@H](CCCNC(=N)N)C(=O)N[C@@H](CO)C(=O)N[C@@H](CC(N)=O)C(=O)N[C@H](C(=O)N[C@@H](Cc1ccccc1)C(=O)N[C@@H](C)C(=O)O)C(C)C [3102.0214] (H-SIKRSNVFA-OH)
IC50: 3.6 nM

CC(C)C[C@H](NC(=O)[C@@H]1CCCN1C(=O)[C@H](Cc1c[nH]cn1)NC(=O)[C@@H](NC(=O)[C@H](CS)NC(=O)[C@H](CCCCN)NC(=O)[C@@H](NC(=O)[C@@H](N)CO)C(C)C)[C@@H](C)O)C(=O)N[C@H](C(=O)O)C(C)C [3102.0215] (H-SVKCTHPLV-OH)
IC50: 0.97 nM

CC[C@H](C)[C@H](NC(=O)[C@H](CCCNC(=N)N)NC(=O)[C@@H]1CCCN1C(=O)[C@H](CO)NC(=O)[C@H](C)NC(=O)[C@H](CCCNC(=N)N)NC(=O)[C@H](CO)NC(=O)[C@@H](N)Cc1c[nH]cn1)C(=O)NCC(=O)O [3102.0216] (H-HSRASPRIG-OH)
IC50: 0.93 nM

CSCC[C@H](NC(=O)[C@H](CC(C)C)NC(=O)[C@H](CCCNC(=N)N)NC(=O)[C@H](C)NC(=O)[C@@H](N)CC(N)=O)C(=O)N[C@@H](CCCNC(=N)N)C(=O)N[C@@H](C)C(=O)N[C@@H](CC(C)C)C(=O)N[C@@H](CCCCN)C(=O)O [3102.0218] (H-NARLMRALK-OH)
IC50: 2.2 nM

CSCC[C@H](NC(=O)[C@H](Cc1ccc(O)cc1)NC(=O)[C@H](CC(N)=O)NC(=O)[C@H](Cc1ccc(O)cc1)NC(=O)[C@H](CO)NC(=O)[C@H](CCCCN)NC(=O)[C@@H](NC(=O)[C@@H](N)CCCCN)C(C)C)C(=O)N[C@@H](CC(C)C)C(=O)O [3102.0219] (H-KVKSYNYML-OH)
IC50: 0.18 nM

CC(C)C[C@H](NC(=O)[C@@H](N)CCCNC(=N)N)C(=O)N[C@@H](CCCCN)C(=O)N[C@@H](CO)C(=O)N[C@@H](C)C(=O)N[C@H](C(=O)N[C@@H](CS)C(=O)N[C@@H](Cc1ccc(O)cc1)C(=O)N[C@@H](CCCCN)C(=O)O)C(C)C [3102.0220] (H-RLKSAVCYK-OH)
IC50: 0.18 nM

C[C@@H](O)[C@H](N)C(=O)N[C@@H](Cc1ccccc1)C(=O)N[C@@H](CCCNC(=N)N)C(=O)N[C@@H](CCC(=O)O)C(=O)N[C@@H](CCCNC(=N)N)C(=O)N[C@@H](Cc1ccc(O)cc1)C(=O)N[C@@H](CO)C(=O)N[C@@H](Cc1ccc(O)cc1)C(=O)N[C@@H](CCCCN)C(=O)O [3102.0221] (H-TFRERYSYK-OH)
IC50: 0.89 nM

CC[C@H](C)[C@H](NC(=O)[C@H](CC(N)=O)NC(=O)[C@@H]1CCCN1C(=O)[C@@H](NC(=O)[C@H](Cc1c[nH]cn1)NC(=O)[C@H](CC(N)=O)NC(=O)[C@H](CCCCN)NC(=O)[C@@H](NC(=O)[C@@H](N)CCCCN)C(C)C)[C@@H](C)CC)C(=O)O [3102.0222] (H-KVKNHIPNI-OH)
IC50: 0.68 nM

C[C@H](NC(=O)[C@H](C)NC(=O)[C@H](CC(N)=O)NC(=O)[C@H](CCC(N)=O)NC(=O)[C@@H]1CCCN1C(=O)[C@H](CC(=O)O)NC(=O)[C@H](CCCNC(=N)N)NC(=O)[C@@H](NC(=O)[C@@H](N)Cc1c[nH]cn1)[C@@H](C)O)C(=O)O [3102.0224] (H-HTRDPQNAA-OH)
IC50: 0.91 nM

CC[C@H](C)[C@H](NC(=O)[C@@H](NC(=O)[C@@H](N)CCSC)[C@@H](C)O)C(=O)N[C@@H](CCCNC(=N)N)C(=O)N[C@@H](CCC(=O)O)C(=O)N[C@@H](Cc1ccccc1)C(=O)N1CCC[C@H]1C(=O)N[C@@H](CCCNC(=N)N)C(=O)N[C@@H](CCCCN)C(=O)O [3102.0225] (H-MTIREFPRK-OH)
IC50: 1.6 nM

CC[C@H](C)[C@H](NC(=O)[C@H](Cc1ccc(O)cc1)NC(=O)CNC(=O)CNC(=O)[C@@H](NC(=O)[C@H](Cc1ccccc1)NC(=O)[C@H](CCCNC(=N)N)NC(=O)[C@H](C)NC(=O)[C@@H](N)CCCNC(=N)N)[C@@H](C)CC)C(=O)O [3102.0226] (H-RARFIGGYI-OH)
IC50: 0.26 nM

CC(C)C[C@H](NC(=O)[C@H](CCC(N)=O)NC(=O)CNC(=O)[C@H](CC(=O)O)NC(=O)[C@H](CCCNC(=N)N)NC(=O)[C@@H](NC(=O)[C@@H](N)[C@@H](C)O)C(C)C)C(=O)N[C@@H](CCC(=O)O)C(=O)N[C@H](C(=O)O)C(C)C [3102.0228] (H-TVRDGQLEV-OH)
IC50: 13 nM

CC[C@H](C)[C@H](NC(=O)[C@H](CC(C)C)NC(=O)[C@H](CO)NC(=O)CNC(=O)[C@@H]1CCCN1C(=O)[C@H](CCCNC(=N)N)NC(=O)[C@H](Cc1ccccc1)NC(=O)[C@@H](N)CCCCN)C(=O)N[C@@H](Cc1ccc(O)cc1)C(=O)O [3102.0230] (H-KFRPGSLIY-OH)
IC50: 0.3 nM

CSCC[C@H](NC(=O)[C@@H](N)CCCCN)C(=O)N[C@@H](CCCNC(=N)N)C(=O)N[C@@H](CCCNC(=N)N)C(=O)N[C@@H](CCC(=O)O)C(=O)N[C@@H](CCCNC(=N)N)C(=O)N[C@@H](C)C(=O)N[C@@H](C)C(=O)N[C@@H](Cc1ccc(O)cc1)C(=O)O [3102.0231] (H-KMRRERAAY-OH)
IC50: 3 nM

CSCC[C@H](N)C(=O)N[C@@H](CCCNC(=N)N)C(=O)N[C@@H](CCCNC(=N)N)C(=O)N[C@@H](CCC(=O)O)C(=O)N[C@@H](CCCNC(=N)N)C(=O)N[C@@H](C)C(=O)N[C@@H](C)C(=O)N[C@@H](Cc1ccc(O)cc1)C(=O)N[C@H](C(=O)O)C(C)C [3102.0232] (H-MRRERAAYV-OH)
IC50: 22 nM

CC(C)C[C@H](NC(=O)[C@H](CCC(=O)O)NC(=O)[C@H](CCCNC(=N)N)NC(=O)[C@H](CCCCN)NC(=O)[C@H](Cc1ccc(O)cc1)NC(=O)[C@H](Cc1ccccc1)NC(=O)[C@H](CCCCN)NC(=O)[C@@H](NC(=O)[C@@H](N)CCCCN)C(C)C)C(=O)O [3102.0235] (H-KVKFYKREL-OH)
IC50: 42 nM

CC[C@H](C)[C@H](NC(=O)[C@H](CCCNC(=N)N)NC(=O)[C@@H](NC(=O)[C@@H](N)CCCCN)[C@@H](C)O)C(=O)N[C@@H](CCCNC(=N)N)C(=O)N[C@@H](CC(N)=O)C(=O)N[C@@H](CC(C)C)C(=O)N[C@@H](CCCCN)C(=O)N[C@@H](CCCNC(=N)N)C(=O)O [3102.0236] (H-KTRIRNLKR-OH)
IC50: 6.5 nM

CC[C@H](C)[C@H](NC(=O)[C@H](CCC(N)=O)NC(=O)[C@H](CCC(=O)O)NC(=O)[C@H](CCCNC(=N)N)NC(=O)[C@H](C)NC(=O)[C@@H](N)CCCNC(=N)N)C(=O)N[C@@H](CO)C(=O)N[C@@H](CC(N)=O)C(=O)N[C@@H](CC(C)C)C(=O)O [3102.0237] (H-RAREQISNL-OH)
IC50: 2.7 nM

CC(C)C[C@H](NC(=O)[C@H](CC(=O)O)NC(=O)[C@H](CCCCN)NC(=O)[C@@H](NC(=O)[C@@H](N)CCCCN)C(C)C)C(=O)N[C@@H](Cc1ccccc1)C(=O)N[C@@H](CC(N)=O)C(=O)N[C@H](C(=O)N[C@@H](CCCCN)C(=O)O)[C@@H](C)O [3102.0238] (H-KVKDLFNTK-OH)
IC50: 38 nM

CC[C@H](C)[C@H](NC(=O)[C@@H](NC(=O)[C@@H](NC(=O)[C@H](CCCCN)NC(=O)[C@H](C)NC(=O)[C@@H](N)CCCCN)[C@@H](C)O)[C@@H](C)O)C(=O)N[C@@H](CO)C(=O)N[C@@H](CC(N)=O)C(=O)N[C@@H](Cc1ccc(O)cc1)C(=O)O [3102.0241] (H-KAKTTISNY-OH)
IC50: 24 nM
